# Laboratory results taken from patent US20130059324A1, “SYSTEMS AND METHODS FOR MECHANICALLY STRAINED CELL CULTURE” (THE UNIVERSITY OF KANSAS, priority 2010, published 2013).
# What was measured:
# [1] = system: cells in a static monolayer culture; assay: IC90 in static monolayer culture (tested concentration); format: cell-based; conditions: concentration that inhibits the growth of 90% of the cells in a static monolayer culture
# Method: Table 1 includes a list of investigated chemotherapeutic drugs, their mechanisms of action and the tested concentrations.
# (§1) After 72 hours of initial seeding, one of the five drugs was added to Treatments 3 and 6 of each cell line. […] The IC90, concentration of the drug that inhibits the growth of 90% of the cells in a static monolayer culture, was used to assure a significant inhibition in the absence of simulated forces. To insure comparability, an aliquot of 1 ml of media without the drug was added to each well in Treatments 2 and 5. After adding the drug or 1 ml of media, the plates from Treatments 5 and 6 were placed back on the baseplate and subjected to the same force profile as before for the remaining 72 hours. Plates from Treatments 2 and 3 (without forces) were placed in the same incubator for the remaining 72 hours.
# [2] = system: NCI-H358 cells; assay: Drug exposure with or without simulated forces, 6-well Bioflex plates, live cell count and exponential growth model; format: cell-based, human
# Text: Treatments 1, 2 and 3 served as unstretched controls for Treatments 4, 5 and 6, respectively. For each cell line and drug, all treatments were independently repeated at least 3 times on different days, with 3 replicates per Treatments 1 and 4 (n=9) and 5 replicates per all other treatments (n=15).
# The NCI-H358 (ATCC® CRL-5807) and A549 (ATCC® CCL-185) cell lines were obtained from American Type Culture Collection (ATCC, Manassas, Va.) and cultured in RPMI-1640 (NCI-H358) and HAM's F12K (A549) media containing 10% Fetal Bovine Serum (Sigma Aldrich, St. Louis, Mo.) and 1% Penicillin Streptomycin (Sigma Aldrich). Cells were passaged in 75 cm2 culture flasks at 37° C. in 5% CO2, and trypsinized using TryplE™ Express (Gibco) containing phenol red.
# Cells were plated in 6-well Bioflex® plates (Flexcell® International Corporation, Hillsborough, N.C.). Each well of the plate has a flexible elastic membrane coated with a thin layer of type I collagen. Type I collagen was chosen since it more accurately represents the physiology of lung tumor cells in vivo. The Flexcell is not configured for drug studies as described herein, and had to be modified as described herein. […] Therefore, to have the same number of cells in culture at the time of drug exposure, initial seeding densities for treatments not involving simulated forces (Treatments 1-3) and those involving forces (Treatments 4-6) were adjusted for each cell line. In Treatments 1, 2 and 3, NCI-H358 and A549 cells were plated at a density of 100,000 and 20,000 cells/well in 2 ml of corresponding media, respectively. For treatments involving simulated forces (Treatments 4-6), NCI-H358 and A549 cells were plated at a density of 170,000 and 35,000 cells/well, respectively.
# After allowing the cells to adhere to the membrane for 24 hours, the plates assigned for simulated forces were stretched using the FX-4000 Tension plus unit (Flexcell® International Corporation, Hillsborough, N.C.). The Flexcell unit was configured to deliver an alternating positive and negative pressure beneath the cell culture surfaces. Negative pressure pulls the culture surface down over a stationary Delrin post on the baseplate, delivering a uniform biaxial strain to the cells, and subsequent application of positive pressure releases this distension (FIGS. 9A and 9B.) In this manner, the alternating positive and negative pressure simulates forces experienced during respiration. Culture plates experiencing forces were fitted with rubber gaskets and placed on circular loading stations in the baseplate. […] Cells were preconditioned with mechanical forces for 48 hours, in an incubator at 37° C., 5% CO2 and 95% relative humidity.
# as §1
# Cells were trypsinized and counted at the end of day 3 in Treatments 1 and 4, and at the end of day 6 in the other treatments, using a Beckman Coulter Vi-Cell Analyzer (Beckman Coulter, Fullerton, Calif.). To examine changes in morphology, microphotographs of A549 and NCI-H358 cells were taken at the end of Treatments 1, 2, 4 and 5 using an Olympus inverted microscope and a 10× objective.
# The standard exponential cell growth model (28) was used to describe the changes in live cell counts after each treatment. […]
# [3] = system: H358 cells grown as 3D tissues; assay: 3D culture antiproliferative MTS assay in collagen with and without mechanical forces; format: cell-based; conditions: Homo sapiens, NCI-H358, 72 h, H358 3D in collagen, 72 hours exposure
# Method: Effects of mechanical forces on engineered 3-dimensional tumor tissues were also studied, An experiment was conducted with paclitaxel, which was tested in the presence and absence of mechanical forces in H358 cells (bronchioalveolar carcinoma) grown as 3D tissues in type 1 rat tail collagen scaffold. The cells were seeded at a density of 4×10^6 cells per well in 6-well Bioflex collagen I plates and cultured in PRMI 1640 medium The forces that were tested were configured to mimic normal respiration. After 24 hours of seeding, cells were stretched from 0% to a maximum of 20% elongation for 2 seconds followed by 2 seconds of rest continuously for 4 days. Control group included cells that were plated in collagen at the same densities and incubated for 5 days without mechanical forces. […] As a note, a computing system similar to FIG. 6 can be used to control an experiment system in order to provide predetermined cycles of mechanical strain and relaxation.
# Following 24 hours of stetching, paclitaxel was added to H358 cells in ten 1:3 dilutions with starting concentrations 100 μM. […] Dose response curves were plotted and corresponding IC50 values (concentration of the drug at which 50% of the cells are inhibited) were calculated for stretched and un-stretched conditions using Graphpad Prism software.
# [4] = system: H358 cells; assay: Prototype 96-well plate, viable cell count (Vi-Cell) with and without mechanical forces; format: cell-based, human
# Method: After allowing the cells to adhere to the flexible membrane of the 96 well plate for 24 hours, the loading pins and the system described in FIG. 7 to implement mechanical strain were used to deliver 20% maximum strain for 2 seconds to the plate assigned for mechanical forces (+M Group), followed by 2 seconds of rest (15 cycles per minute with an average strain of 10% per cycle) in keeping with a normal human respiration.
# In a parallel experiments, the cells were treated with anti-tumor drug after 72 hours of initial seeding (after 48 hours of mechanical stretching). The drug was dissolved in dimethyl sulfoxide (DMSO) at stock concentration and added to the respective media. An aliquot of 50 μl of drug stock solution was added to the well containing 100 μl of media (a 1:3 dilution) in a drug plate to get the desired IC90 concentration of the drug (Table 1). The IC90 concentrations of the drugs were then added to prototype plate.
# The +M Group was subjected to continuous mechanical stretching while the −M Group plate was placed in the same incubator for additional 24 hours.
# In order to quantify viability, 6 wells per treatment group for ViCell counter and 6 wells per condition for MTS were assigned to determine the cell viability. Using Vi-Cell counter, assigned wells were filled with extra 210 μl of media to keep the volume constant in all the wells.
smiles,measurement,setting,value
CC(=O)O[C@H]1C(=O)[C@@]2(C)[C@H]([C@H](OC(=O)c3ccccc3)[C@]3(O)C[C@H](OC(=O)[C@H](O)[C@@H](NC(=O)c4ccccc4)c4ccccc4)C(C)=C1C3(C)C)[C@]1(OC(C)=O)CO[C@@H]1C[C@@H]2O [Paclitaxel],IC90,[1],50 nM
same,"Growth Rates, With forces","[2]; drug at IC90 for 3 days, 20% maximum strain, 15 cycles/minute",−0.276 per day
same,"Growth Rates, Without forces","[2]; drug at IC90 for 3 days, no forces",−0.005 per day
same,"Effectiveness of The Drug, Without forces (E)","[2]; percentage reduction in live cell counts, 3-day drug exposure at IC90, no forces",70.5%
same,"Effectiveness of The Drug, With forces (Ef)","[2]; percentage reduction in live cell counts, 3-day drug exposure at IC90, simulated forces",66.8%
same,IC50,[3]; absence of mechanical stress,22600 nM
same,IC50,[3]; cells experiencing mechanical stress (0-20% elongation),200 nM
same,Effect of mechanical forces on viable cell count / cytotoxicity,"[4]; 24 hours drug exposure, prototype 96-well plate",remained unaffected
same,"Viable Cell Count after 24 hours of drug exposure, With forces (Ef)","[4]; drug at IC90, 24 hours, mechanical forces",9687.5
same,"Viable Cell Count after 24 hours of drug exposure, Without forces (E)","[4]; drug at IC90, 24 hours, no forces",21250.0
